According to US7709002B1, “Mutated ras peptides for generation of CD8+Cytotoxic T lymphocytes” (The United States of America as represented by the …, priority 1996, dated 2010):
Where no end group is shown, it is not given here.

Legend:
[1] = test system: T2 cell line as target of CD8+ CTL line of RAS patient 32; experiment: 51Cr-release cytotoxicity of CD8+ CTL line of RAS patient 32 against peptide-pulsed T2 targets; assay type: cell-based, human; details: peptide 10 μg/ml, IVS cycle 7 (FIG. 5)
Protocol: FIG. 5. Cytolytic activity by CD8^+ CTL line of RAS patient 32 is peptide-specific. The CD8^+ CTL line of RAS patient 32 (see FIG. 3) was assayed against the T2 cell line as a target, incubated with and without different ras peptides (10 μg/ml), as shown. In parallel, the extent of NK activity was evaluated against K562 cells. Cytotoxicity was determined by ^51Cr-release, and the results expressed at different E/T ratios following IVS cycle 7. Similar results were observed using the second, independently-derived CD8^+ CTL line as described in Table 6.
IVS cycles for evaluation of CD8^+ T cell responses from HLA-A2+Patients. Freshly-thawed PBMC (from ras patients 32 and 33), derived pre-vaccination and post-third vaccination, were enriched in T lymphocytes by passage over nylon wool columns (Robbins Scientific, Sunnyvale, Calif.) and then depleted of CD4^+ T cells by negative selection via panning on anti-CD4 MAb-coated T25 flasks (Applied Immune Sciences, Santa Clara, Calif.). For the first IVS cycle, CD8^+ enriched lymphocytes (5×10^5/well) were cultured in 24-well plates with irradiated, autologous PBMC (5×10^6/well) as APC which had been preincubated for 3 hours with the appropriate mutant ras peptide ([…]) plus human β2-microglobulin (10 μg/ml) (Calbiochem, San Diego, Calif.). […] IL-2 (10 U/ml) was added 3 days later. After an additional 7 days, viable cells (2-5×10^5/well) were re-cultured by weekly stimulation with APC pre-pulsed with peptide/β2-microglobulin, and IL-2 added one day later. After the third or fourth IVS cycle, autologous PBMC were replaced with EBV-transformed, autologous BLCL (5×10^5/well) as APC. […] CTL activity was evaluated from cultures 5 to 6 days after Ag restimulation.
Cytotoxic response. Cytotoxicity was examined by a conventional ^51Cr-release assay, as described (6). Briefly, target cells (i.e. T2, C1R-A2, BLCL, K562) were radiolabeled with 200 μCi of Na2[^51Cr]04 (Amersham) for 60 minutes at 37° C., followed by thorough washing to remove unincorporated isotope. Effectors and targets (1×10^4/well) were incubated in 96-well, U-bottomed plates (Costar) at various effector target (E/T) ratios in the absence and presence of peptide (+/−monoclonal antibody (MAb) directed against CD4, CD8 or HLA-A2 molecules (clone BB7.2 from ATCC)) for up to 6 hours. After incubation, supernatants were collected using a Supernatant Collection System (Skatron, Sterling, Va.) and radioactivity measured in a γ-counter (Packard Instruments, Downers Grove, Ill.). Cytotoxic activity was defined as percent specific release of ^51Cr and determined by the equation: [(experimentalcpm−spontaneouscpm)/maximumcpm−spontaneouscpm)]×100. Results were expressed as the mean±SEM of triplicate cultures. […]

[2] = test system: ras p21 codon 12 mutated carcinoma patients; experiment: Phase I vaccination of metastatic carcinoma patients with mutant ras 13-mer peptide in Detox adjuvant; assay type: in vivo, human; details: patient 32, 0.1 mg/vaccination x3 in Detox adjuvant, s.c.
From the text: Patient selection. Adult cancer patients with histologically confirmed diagnosis of adenocarcinoma of the colon, gastrointestinal tract, lung or pancreas with metastatic disease, were screened as potential candidates for this phase I clinical study. Tumor samples from these patients were examined for point mutations in the K-ras gene at codon 12 by polymerase chain reaction (PCR) of paraffin-embedded sections by methods known in the art. In addition to fulfilling all other essential inclusion criteria as specified in the FDA-approved NCI clinical protocol, those patients presenting the appropriate K-ras mutation were then selected for study entry.
Peptides and immunizations. Mutant ras 13-mer peptides used as immunogens were synthesized as clinical grade reagents under GMP conditions (Bachem, Torrance, Calif.: >97% purity by HPLC). Control and additional experimental peptides, which were used in vitro, either were prepared commercially (Bachem) or synthesized in the laboratory on an Applied Biosystems Model 432A personal peptide synthesizer (Foster City, Calif.) using Fmoc chemistry (>90% purity by HPLC). These reagent-grade products were dissolved in aqueous solution at 2 mg/ml, filter-sterilized and stored in aliquots at −70° C. The normal sequence of ras p21 reflecting positions 5-17 is […]([…]) (SEQ. ID NO. 1). […]

[3] = test system: post-vaccine PBMC of patient 32; experiment: Lymphoproliferation of post-vaccine PBMC of patient 32; assay type: cell-based, human; details: multiple IVS cycles
human HLA-A2 = target: T1, human HLA-A2 (Homo sapiens, UniProt P04439, D140Y/D185E/D98H/E176V/E277Q/G131W/G231S/I119V/I121R/I166T/I218V/L300P/L318F/N151K/N90K/P208A/P217A/Q86G/Q94H/R138H/R169H/T345S); experiment: HLA-A2 binding bioassay on T2 cells (flow cytometry); details: T2 bioassay
T1 construct: The 174CEM.T2 cell line (“T2”), (transport deletion mutant); endogenous in cells; host or cells: 174CEM.T2 (T2) human cell line

[4] = test system: HLA-A2+ peptide-pulsed targets; experiment: Generation and cytotoxicity of ras4-12(V12)-specific CD8+ CTL line from a normal HLA-A2+ donor; assay type: cell-based, human; details: wild-type printed as wild-type ras peptide
BALB/c mouse = experiment: Induction of MHC class I-restricted CD8+ CTL responses in the mouse; assay type: in vivo, mouse (BALB/c; H-2^d); details: H-2^d
From the text: The basis of immunogenicity, in part, was attributed to the introduction of the mutated Val12 residue, which created a dominant C-terminus anchor for MHC class I binding. The resulting CD8^+ CTL response, thus, likely reflected T cell receptor recognition of a previously unseen peptide/MHC complex. In contrast to the ras5-14 sequence, ras4-12(V12) only partly shared the consensus motif for HLA-A2 binding, as the leucine anchor shifted from position 2 to 3. Importantly, the introduction of the mutated Val12 residue, as in the mouse, now created a dominant C-terminus anchor. […] (See FIG. 6).

Binding to HLA-A2 on T2 cells (in words) (human HLA-A2) | Substance | Sensitization of T2 targets for lysis (in words) [1] | T cell response induced by vaccination [2] | CD4+ proliferative response against immunizing 13-mer peptide [3] | Generation of peptide-specific CTL line / lysis of peptide-pulsed targets (in words) [4] | Induction of CD8+ CTL responses in mouse (BALB/c mouse)
 | Lys-Leu-Val-Val-Val-Gly-Ala-Asp-Gly-Val-Gly-Lys-Ser [ras5-17(Asp12)] | did not appear to induce cytotoxicity | led to peptide-specific CD8^+ CTL activation | No specific CD4^+ proliferative response was observed |  | 
specific, albeit weak, binding to HLA-A2 | YKLVVVGAV [ras4-12(V12)] |  |  |  | A CD8^+ CTL line specific for ras4-12(V12) was then derived | resulted in the induction of MHC class I-restricted CD8^+ CTL responses
